# Reference: patent US7863408B2, “Body fluid compatible and biocompatible resin” (Asahi Kasei Kabushiki Kaisha, priority 2002, dated 2011)
# How the values were obtained:
# [1] = Solubility in physiological saline; format: physicochemical; settings: for dissolution of 10 mg compound in 0.1 ml of physiological saline / dissolution ratio in terms of camptothecin: Example 162; for dissolution ratio in terms of camptothecin: physiological saline, 10 mg compound in 0.1 ml
# Description: 10 mg of each of compounds (203) and (206) was precisely weighed and individually added to 0.1 ml of physiological saline.
# [2] = system: Colon 26 tumor cells; assay: Antitumor assay, Colon 26; format: in vivo, mouse; settings: Balb/C mice, 50 mg/kg in terms of paclitaxel
# Description: Further, a control solution was prepared by dissolving paclitaxel as such in a mixture of ethanol, Cremophore EL (manufactured and sold by Sigma, U.S.A.) and physiological saline. Thus, two types of solutions, namely, a test sample solution and a control solution were obtained. Six female Balb/C mice (six weeks old) were divided into two groups, each consisting of three mice, and subsequently, a 4% suspension of Colon 26 tumor cells was intradermally transplanted to the flank of each of the mice. […] Each mouse of the other group of the two groups received administration of the control solution, wherein the control solution was administered in the same manner as in the case of the administration of the test sample solution (i.e., the dose of paclitaxel was 50 mg/kg), thereby obtaining a control group of mice. Separately, a group consisting of five female Balb/C mice (six weeks old), which were transplanted with Colon 26 tumor cells in the same manner as mentioned above, was provided. Each of the mice of such group received the administration of only physiological saline in the same manner as in the case of the administration of the test sample solution, to thereby obtain a non-treated group of mice. Each of the above-mentioned administration of the test sample solution, control solution and physiological saline was performed every 4 days, 7 times in total in the above-mentioned manner.
# (§1) Evaluation was made of the antitumor activity in terms of the change (with the lapse of time) of the average tumor volume (%). The tumor volume was determined as follows. The major and minor diameters (a and b, respectively) (each in mm) of the tumor were externally measured, and the tumor volume (V) was obtained according to the following formula.
# Further, a control solution was prepared by dissolving paclitaxel as such in a mixture of ethanol, Cremophore EL (manufactured and sold by Sigma, U.S.A.) and physiological saline. Thus, five types of solutions, namely, four types of test sample solutions and one control solution were obtained. Twenty-five female Balb/C mice (six weeks old) were divided into five groups, each consisting of five mice, and subsequently, a 4% suspension of Colon 26 tumor cells was intradermally transplanted to the flank of each of the mice. After two days from the transplantation, four groups of the five groups of mice respectively received the administration of the four test sample solutions obtained above, wherein the dose of the compound was 50 mg/kg in terms of paclitaxel. Each mouse of the other group of the five groups received administration of the control solution, wherein the control solution was administered in the same manner as in the case of the administration of the test sample solution (i.e., the dose of paclitaxel was 50 mg/kg), thereby obtaining a control group of mice. Separately, a group consisting of nine female Balb/C mice (six weeks old), which were transplanted with Colon 26 tumor cells in the same manner as mentioned above, was provided. Each of the mice of such group received the administration of only physiological saline in the same manner as in the case of the administration of the test sample solution, to thereby obtain a non-treated group of mice. Each of the above-mentioned administration of the test sample solution, control solution and physiological saline was performed every 7 days, 4 times in total in the above mentioned manner.
# as §1, with “volume” for “volume (V)”
# [3] = system: B16 melanoma cells; settings: Example 149; C57BL/6 mice; 50 mg/kg in terms of paclitaxel, tail-vein injection; six days after administration
# Description: Further, a control solution was prepared by dissolving paclitaxel as such in a mixture of ethanol, Cremophore EL (manufactured and sold by Sigma, U.S.A.) and physiological saline. Thus, two types of solutions, namely, a test sample solution and a control solution were obtained. Twenty-one female C57BL/6 mice (six weeks old) were divided into three groups, each consisting of seven mice, and subsequently, B16 melanoma cells were intradermally transplanted to the groin of each of the mice (5×10^6 cells per mouse). […] Each mouse of the other one group of the three groups received the administration of the control solution, wherein the control solution was administered in substantially the same manner as in the above-mentioned administration of the test sample solution, except that the dose of paclitaxel was 50 mg/kg, thereby obtaining a control group of mice. Separately, a group consisting of thirteen female C57BL/6 mice (six weeks old), which were transplanted with B16 melanoma cells in the same manner as mentioned above, was provided. Each of the mice of such group received the administration of physiological saline, to thereby obtain a non-treated group of mice.
# [4] = Example 151, every 7 days, 4 times
compound,measurement,setting,value
"CC(=O)O[C@H]1C(=O)[C@@]2(C)[C@H]([C@H](OC(=O)c3ccccc3)[C@]3(O)C[C@H](OC(=O)[C@H](O)[C@@H](NC(=O)c4ccccc4)c4ccccc4)C(C)=C1C3(C)C)[C@]1(OC(C)=O)CO[C@@H]1C[C@@H]2O [paclitaxel, reference compound]",dissolution of 1 mg in 10 ml of physiological saline,[1]; Example 145,not able to be completely dissolved
same,order of the magnitudes of the antitumor activity,[2]; [4],(177)/(179)>(181)>(183)/paclitaxel
carboxymethylated polyether-2′-Ala-paclitaxel [(179)],antitumor activity (average tumor volume with time) compared to paclitaxel as such,[2]; [4],significantly excellent
same,order of the magnitudes of the antitumor activity,[2]; [4],(177)/(179)>(181)>(183)/paclitaxel
carboxymethylated polyether-2′-Gly-Gly-Phe-Gly-paclitaxel [Compound (197)],antitumor activity (average tumor volume with time) compared to paclitaxel as such,"[2]; Example 150, every 4 days, 7 times",significantly excellent
same,antitumor activity (relative average tumor volume) compared to paclitaxel as such,[3],significantly excellent
carboxymethylated polyether-2′-Gly-paclitaxel [Compound (177)],antitumor activity (average tumor volume with time) compared to paclitaxel as such,[2]; [4],significantly excellent
same,order of the magnitudes of the antitumor activity,[2]; [4],(177)/(179)>(181)>(183)/paclitaxel
carboxymethylated polyether-2′-Ile-paclitaxel [(183)],order of the magnitudes of the antitumor activity,[2]; [4],(177)/(179)>(181)>(183)/paclitaxel
carboxymethylated polyether-2′-Leu-paclitaxel [(181)],order of the magnitudes of the antitumor activity,[2]; [4],(177)/(179)>(181)>(183)/paclitaxel
carboxymethylated polyether-20-Gly-Gly-Phe-Gly-camptothecin [(206)],dissolution of 10 mg compound in 0.1 ml of physiological saline,[1],completely dissolved
same,dissolution ratio in terms of camptothecin,[1],4.5 mg/mL
carboxymethylated polyether-20-Gly-camptothecin [Compound (203)],dissolution of 10 mg compound in 0.1 ml of physiological saline,[1],completely dissolved
same,dissolution ratio in terms of camptothecin,[1],3.5 mg/mL
